From patent US10722501B2 (BAYER AKTIENGESELLSCHAFT, priority 2016, dated 2020)

The compounds below were run against T1, recombinant full-length human prolyl endopeptidase (PREP) (Homo sapiens, UniProt P48147) (assay: Biochemical human prolyl endopeptidase (PREP) assay with fluorescently labelled substrate). Conditions: substrate Z-Gly-Pro-AMC 50 μM, 32° C., 60 min; some as mean values from multiple independent determinations.
T1 construct: To recombinant full-length human prolyl endopeptidase (PREP, R&D-Systems, 4308-SE); purchased R&D-Systems 4308-SE
T1 sequence (P48147 1-710): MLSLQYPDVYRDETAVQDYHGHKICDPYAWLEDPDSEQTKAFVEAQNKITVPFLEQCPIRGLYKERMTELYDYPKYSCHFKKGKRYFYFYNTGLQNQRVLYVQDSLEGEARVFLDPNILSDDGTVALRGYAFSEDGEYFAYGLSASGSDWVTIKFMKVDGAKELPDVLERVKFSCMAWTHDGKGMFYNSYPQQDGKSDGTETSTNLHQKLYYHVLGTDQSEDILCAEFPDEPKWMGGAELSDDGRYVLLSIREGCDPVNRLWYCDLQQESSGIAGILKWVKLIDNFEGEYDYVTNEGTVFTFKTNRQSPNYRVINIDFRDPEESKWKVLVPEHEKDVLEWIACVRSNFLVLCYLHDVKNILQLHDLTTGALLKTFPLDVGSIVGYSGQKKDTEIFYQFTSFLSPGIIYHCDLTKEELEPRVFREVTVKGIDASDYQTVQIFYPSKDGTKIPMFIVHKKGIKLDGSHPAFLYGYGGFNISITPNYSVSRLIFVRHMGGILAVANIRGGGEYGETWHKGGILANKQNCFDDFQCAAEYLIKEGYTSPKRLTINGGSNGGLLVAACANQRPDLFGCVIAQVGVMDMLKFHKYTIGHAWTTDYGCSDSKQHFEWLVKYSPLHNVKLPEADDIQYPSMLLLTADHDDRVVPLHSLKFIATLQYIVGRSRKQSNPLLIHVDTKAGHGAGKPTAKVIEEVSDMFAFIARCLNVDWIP
Outline: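 0.4 nM (final, example) recombinant PREP in pH 7.5 Tris buffer with EDTA, GSH, BSA and Brij-35; compounds at 1 nM to 30 μM. Reaction started with 50 μM Z-Gly-Pro-AMC and followed by fluorescence (ex 360/em 465 nm) at 32° C for 60 min. IC50 interpolated from percent activity based on initial slopes.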

| Compound | IC50 [nM] |
| --- | --- |
| O=C([C@@H]1CCC(F)(F)c2nn(Cc3ccc(Cl)cn3)c(=O)n21)N1CC[C@H](F)C1 [Example 555, (5S)-2-[(5-Chloropyridin-2-yl)methyl]-8,8-difluoro-5-{[(3S)-3-fluoropyrrolidin-1-yl]carbonyl}-5,6,7,8-tetrahydro[1,2,4]triazolo[4,3-a]pyridin-3(2H)-one] | 0.54 |
| O=C(C1CC(C(F)(F)F)Cc2nn(Cc3ncc(C(F)(F)F)cc3Cl)c(=O)n21)N1CC[C@H](F)C1 (mixture of isomers) [Example 562, (5RS,7RS)-2-{[3-Chloro-5-(trifluoromethyl)pyridin-2-yl]methyl}-5-{[(3S)-3-fluoropyrrolidin-1-yl]carbonyl}-7-(trifluoromethyl)-5,6,7,8-tetrahydro[1,2,4]triazolo[4,3-a]pyridin-3(2H)-one] | 1.33 |
| O=C([C@@H]1CCCc2nn(Cc3ccc(Cl)cn3)c(=O)n21)N1CCC(F)(F)C1 [Example 377, (5S)-2-[(5-Chloropyridin-2-yl)methyl]-5-[(3,3-difluoropyrrolidin-1-yl)carbonyl]-5,6,7,8-tetrahydro[1,2,4]triazolo[4,3-a]pyridin-3(2H)-one] | 6.86 |
| O=C(C1CCc2nn(Cc3ccc(F)c(Cl)c3)c(=O)n21)N1CC(F)C1 (racemic) [Example 171, (5RS)-2-(3-Chloro-4-fluorobenzyl)-5-[(3-fluoroazetidin-1-yl)carbonyl]-2,5,6,7-tetrahydro-3H-pyrrolo[2,1-c][1,2,4]triazol-3-one] | 6.3 |
| O=C(C1CCCc2nn(Cc3ccc(C(F)(F)F)nc3)c(=O)n21)N1CCCC1 (single isomer, unassigned) [Example 85, (5RS)-5-(Pyrrolidin-1-ylcarbonyl)-2-{[6-(trifluoromethyl)pyridin-3-yl]methyl}-5,6,7,8-tetrahydro[1,2,4]triazolo[4,3-a]pyridin-3(2H)-one] | 2.1 |
| COc1ccc(Cn2nc3n(c2=O)C(C(=O)N2CCCC2)CCC3)cc1C(F)(F)F (racemic) [Example 63] | 0.74 |
| Cc1nc(C(F)(F)F)c(Cn2nc3n(c2=O)C(C(=O)N2CCCC2)CCC3)s1 (racemic) [Example 77, (5RS)-2-{[2-Methyl-4-(trifluoromethyl)-1,3-thiazol-5-yl]methyl}-5-(pyrrolidin-1-ylcarbonyl)-5,6,7,8-tetrahydro[1,2,4]triazolo[4,3-a]pyridin-3(2H)-one] | 4.8 |
| O=C([C@@H]1CCCc2nn(CC3(c4cccc(Cl)n4)CC3)c(=O)n21)N1CC[C@H](F)C1 [Example 350, (5S)-2-{[1-(6-Chloropyridin-2-yl)cyclopropyl]methyl}-5-{[(3S)-3-fluoropyrrolidin-1-yl]carbonyl}-5,6,7,8-tetrahydro[1,2,4]triazolo[4,3-a]pyridin-3(2H)-one] | 0.35 |
| O=C([C@@H]1CCCc2nn(Cc3nnc(C(F)(F)F)o3)c(=O)n21)N1CC(F)C1 [Example 542, (5S)-5-[(3-Fluoroazetidin-1-yl)carbonyl]-2-{[5-(trifluoromethyl)-1,3,4-oxadiazol-2-yl]methyl}-5,6,7,8-tetrahydro[1,2,4]triazolo[4,3-a]pyridin-3(2H)-one] | 94 |
| Cc1ccc(Cn2nc3n(c2=O)[C@H](C(=O)N2CC(C)C2)CCC3)cc1 [Example 192, (5S)-5-[(3-Methylazetidin-1-yl)carbonyl]-2-(4-methylbenzyl)-5,6,7,8-tetrahydro[1,2,4]triazolo[4,3-a]pyridin-3(2H)-one] | 0.32 |
| Cc1ccc(Cn2nc3n(c2=O)C(C(=O)N2CC(F)(F)C2)CCC3)cc1 (racemic) [Example 114, (5RS)-5-[(3,3-Difluoroazetidin-1-yl)carbonyl]-2-(4-methylbenzyl)-5,6,7,8-tetrahydro[1,2,4]triazolo[4,3-a]pyridin-3(2H)-one] | 1.95 |
| O=C([C@@H]1CCC(F)(F)c2nn(Cc3ccc(Cl)nc3)c(=O)n21)N1CCC(F)(F)C1 [Example 557, (5S)-2-[(6-Chloropyridin-3-yl)methyl]-5-[(3,3-difluoropyrrolidin-1-yl)carbonyl]-8,8-difluoro-5,6,7,8-tetrahydro[1,2,4]triazolo[4,3-a]pyridin-3(2H)-one] | 3.2 |
| O=C([C@@H]1CCCc2nn(Cc3cccc(C(F)(F)F)c3)c(=O)n21)N1CC[C@H](O)C1 [Example 99, (5S)-5-{[(3S)-3-Hydroxypyrrolidin-1-yl]carbonyl}-2-[3-(trifluoromethyl)benzyl]-5,6,7,8-tetrahydro[1,2,4]triazolo[4,3-a]pyridin-3(2H)-one] | 12.7 |
| O=C([C@@H]1CCCc2nn(Cc3ccc(Cl)nc3)c(=O)n21)N1CCC(F)(F)C1 [Example 423, (5S)-2-[(6-Chloropyridin-3-yl)methyl]-5-[(3,3-difluoropyrrolidin-1-yl)carbonyl]-5,6,7,8-tetrahydro[1,2,4]triazolo[4,3-a]pyridin-3(2H)-one] | 1.85 |
| O=C(C1CCCc2nn(Cc3ccc(C(F)(F)F)nc3)c(=O)n21)N1CCCC1 (racemic) [Example 84, (5RS)-5-(Pyrrolidin-1-ylcarbonyl)-2-{[6-(trifluoromethyl)pyridin-3-yl]methyl}-5,6,7,8-tetrahydro[1,2,4]triazolo[4,3-a]pyridin-3(2H)-one] | 5.7 |
| O=C([C@@H]1CCCc2nn(Cc3ccnc(C(F)(F)F)c3F)c(=O)n21)N1CC[C@H](F)C1 [Example 484, (5S)-5-{[(3S)-3-Fluoropyrrolidin-1-yl]carbonyl}-2-{[3-fluoro-2-(trifluoromethyl)pyridin-4-yl]methyl}-5,6,7,8-tetrahydro[1,2,4]triazolo[4,3-a]pyridin-3(2H)-one] | 0.295 |
| Cn1nc(Cn2nc3n(c2=O)[C@H](C(=O)N2CC(F)(F)C2)CCC3)c2cccnc21 [Example 415, (5S)-5-[(3,3-Difluoroazetidin-1-yl)carbonyl]-2-[(1-methyl-1H-pyrazolo[3,4-b]pyridin-3-yl)methyl]-5,6,7,8-tetrahydro[1,2,4]triazolo[4,3-a]pyridin-3(2H)-one] | 5.4 |
| O=C(C1CC(C(F)(F)F)Cc2nn(Cc3ncc(F)cc3F)c(=O)n21)N1CCC(F)(F)C1 (single isomer, unassigned) [Example 574, (5RS,7RS)-2-[(3,5-Difluoropyridin-2-yl)methyl]-5-[(3,3-difluoropyrrolidin-1-yl)carbonyl]-7-(trifluoromethyl)-5,6,7,8-tetrahydro[1,2,4]triazolo[4,3-a]pyridin-3(2H)-one] | 5.2 |
| O=C([C@@H]1CCCc2nn(Cc3ccc(Cl)c(F)c3)c(=O)n21)N1CC(F)(F)C1 [Example 465, (5S)-2-(4-Chloro-3-fluorobenzyl)-5-[(3,3-difluoroazetidin-1-yl)carbonyl]-5,6,7,8-tetrahydro[1,2,4]triazolo[4,3-a]pyridin-3(2H)-one] | 2.1 |
| O=C([C@@H]1CCCc2nn(CCc3ccc(F)cc3)c(=O)n21)N1CCC(F)(F)C1 [Example 519, (5S)-5-[(3,3-Difluoropyrrolidin-1-yl)carbonyl]-2-[2-(4-fluorophenyl)ethyl]-5,6,7,8-tetrahydro[1,2,4]triazolo[4,3-a]pyridin-3(2H)-one] | 1.4 |
| CCn1nc(C(F)(F)F)cc1Cn1nc2n(c1=O)[C@H](C(=O)N1CC[C@H](F)C1)CCC2 [Example 360, (5S)-2-{[1-Ethyl-3-(trifluoromethyl)-1H-pyrazol-5-yl]methyl}-5-{[(3S)-3-fluoropyrrolidin-1-yl]carbonyl}-5,6,7,8-tetrahydro[1,2,4]triazolo[4,3-a]pyridin-3(2H)-one] | 0.81 |
| O=C([C@@H]1CCCc2nn(Cc3ncc(Cl)cc3F)c(=O)n21)N1CC(F)C1 [Example 407, (5S)-2-[(5-Chloro-3-fluoropyridin-2-yl)methyl]-5-[(3-fluoroazetidin-1-yl)carbonyl]-5,6,7,8-tetrahydro[1,2,4]triazolo[4,3-a]pyridin-3(2H)-one] | 1.35 |
| CC1CCC(C(=O)N2C[C@@H](F)[C@@H](F)C2)n2c1nn(Cc1ccc(F)cc1F)c2=O (mixture of isomers) [Example 324, (5RS,8RS)-2-(2,4-Difluorobenzyl)-5-{[(3R,4S)-3,4-difluoropyrrolidin-1-yl]carbonyl}-8-methyl-5,6,7,8-tetrahydro[1,2,4]triazolo[4,3-a]pyridin-3(2H)-one] | 1.2 |
| O=C([C@@H]1CCCc2nn(CCc3ncc(C(F)(F)F)cc3Cl)c(=O)n21)N1CCC(F)(F)C1 [Example 343, (5S)-2-{2-[3-Chloro-5-(trifluoromethyl)pyridin-2-yl]ethyl}-5-[(3,3-difluoropyrrolidin-1-yl)carbonyl]-5,6,7,8-tetrahydro[1,2,4]triazolo[4,3-a]pyridin-3(2H)-one] | 7.9 |
| COc1ncc(Cn2nc3n(c2=O)[C@H](C(=O)N2CCC(F)(F)C2)CCC3)cc1Cl [Example 443, (5S)-2-[(5-Chloro-6-methoxypyridin-3-yl)methyl]-5-[(3,3-difluoropyrrolidin-1-yl)carbonyl]-5,6,7,8-tetrahydro[1,2,4]triazolo[4,3-a]pyridin-3(2H)-one] | 0.61 |
